Assay results as given in ChEMBL document CHEMBL4308864, “Targeting tyrosine kinase: Development of acridone - pyrrole - oxindole hybrids against human breast cancer” (2019).

What was measured:
Assay type in all cases: functional
CCRF-CEM = experiment: Growth inhibition of human CCRF-CEM cells assessed as cell growth at 10^-5 M incubated for 48 hrs by sulforhodamine B assay relative to control; details: read-out: Activity
K562 = experiment: Growth inhibition of human K562 cells assessed as cell growth at 10^-5 M incubated for 48 hrs by sulforhodamine B assay relative to control; details: K562, 48 h, read-out: Activity
MOLT-4 = experiment: Growth inhibition of human MOLT4 cells assessed as cell growth at 10^-5 M incubated for 48 hrs by sulforhodamine B assay relative to control; details: MOLT-4, 48 h, read-out: Activity
RPMI-8226 = experiment: Growth inhibition of human RPMI8226 cells assessed as cell growth at 10^-5 M incubated for 48 hrs by sulforhodamine B assay relative to control; details: RPMI-8226, 48 h, read-out: Activity
SR = experiment: Growth inhibition of human SR cells assessed as cell growth at 10^-5 M incubated for 48 hrs by sulforhodamine B assay relative to control; details: read-out: Activity
NCI-H23 = experiment: Growth inhibition of human NCI-H23 cells assessed as cell growth at 10^-5 M incubated for 48 hrs by sulforhodamine B assay relative to control; details: NCI-H23, 48 h, read-out: Activity
NCI-H322M = experiment: Growth inhibition of human NCI-H322M cells assessed as cell growth at 10^-5 M incubated for 48 hrs by sulforhodamine B assay relative to control; details: read-out: Activity
NCI-H460 = experiment: Growth inhibition of human NCI-H460 cells assessed as cell growth at 10^-5 M incubated for 48 hrs by sulforhodamine B assay relative to control; details: NCI-H460, 48 h, read-out: Activity
NCI-H522 = experiment: Growth inhibition of human NCI-H522 cells assessed as cell growth at 10^-5 M incubated for 48 hrs by sulforhodamine B assay relative to control; details: NCI-H522, 48 h, read-out: Activity
HCT-15 = experiment: Growth inhibition of human HCT15 cells assessed as cell growth at 10^-5 M incubated for 48 hrs by sulforhodamine B assay relative to control; details: HCT-15, 48 h, read-out: Activity
KM12 = experiment: Growth inhibition of human KM12 cells assessed as cell growth at 10^-5 M incubated for 48 hrs by sulforhodamine B assay relative to control; details: KM12, 48 h, read-out: Activity
SW-620 = experiment: Growth inhibition of human SW620 cells assessed as cell growth at 10^-5 M incubated for 48 hrs by sulforhodamine B assay relative to control; details: SW-620, 48 h, read-out: Activity
SF-268 = experiment: Growth inhibition of human SF268 cells assessed as cell growth at 10^-5 M incubated for 48 hrs by sulforhodamine B assay relative to control; details: SF-268, 48 h, read-out: Activity
SF-295 = experiment: Growth inhibition of human SF295 cells assessed as cell growth at 10^-5 M incubated for 48 hrs by sulforhodamine B assay relative to control; details: SF-295, 48 h, read-out: Activity
SF-539 = experiment: Growth inhibition of human SF539 cells assessed as cell growth at 10^-5 M incubated for 48 hrs by sulforhodamine B assay relative to control; details: SF-539, 48 h, read-out: Activity
SNB-75 = experiment: Growth inhibition of human SNB75 cells assessed as cell growth at 10^-5 M incubated for 48 hrs by sulforhodamine B assay relative to control; details: SNB-75, 48 h, read-out: Activity
LOX IMVI = experiment: Growth inhibition of human LOXIMVI cells assessed as cell growth at 10^-5 M incubated for 48 hrs by sulforhodamine B assay relative to control; details: read-out: Activity
MDA-MB-435 = experiment: Growth inhibition of human MDA-MB-435 cells assessed as cell growth at 10^-5 M incubated for 48 hrs by sulforhodamine B assay relative to control; details: MDA-MB-435, 48 h, read-out: Activity
SK-MEL-5 = experiment: Growth inhibition of human SK-MEL-5 cells assessed as cell growth at 10^-5 M incubated for 48 hrs by sulforhodamine B assay relative to control; details: SK-MEL-5, 48 h, read-out: Activity
UACC-257 = experiment: Growth inhibition of human UACC257 cells assessed as cell growth at 10^-5 M incubated for 48 hrs by sulforhodamine B assay relative to control; details: UACC-257, 48 h, read-out: Activity
IGROV-1 = experiment: Growth inhibition of human IGROV1 cells assessed as cell growth at 10^-5 M incubated for 48 hrs by sulforhodamine B assay relative to control; details: IGROV-1, 48 h, read-out: Activity
OVCAR-3 = experiment: Growth inhibition of human OVCAR3 cells assessed as cell growth at 10^-5 M incubated for 48 hrs by sulforhodamine B assay relative to control; details: OVCAR-3, 48 h, read-out: Activity
OVCAR-4 = experiment: Growth inhibition of human OVCAR4 cells assessed as cell growth at 10^-5 M incubated for 48 hrs by sulforhodamine B assay relative to control; details: OVCAR-4, 48 h, read-out: Activity
OVCAR-8 = experiment: Growth inhibition of human OVCAR8 cells assessed as cell growth at 10^-5 M incubated for 48 hrs by sulforhodamine B assay relative to control; details: OVCAR-8, 48 h, read-out: Activity
ACHN = experiment: Growth inhibition of human ACHN cells assessed as cell growth at 10^-5 M incubated for 48 hrs by sulforhodamine B assay relative to control; details: read-out: Activity
SN12C = experiment: Growth inhibition of human SN12C cells assessed as cell growth at 10^-5 M incubated for 48 hrs by sulforhodamine B assay relative to control; details: read-out: Activity
UO-31 = experiment: Growth inhibition of human UO31 cells assessed as cell growth at 10^-5 M incubated for 48 hrs by sulforhodamine B assay relative to control; details: UO-31, 48 h, read-out: Activity
DU-145 = experiment: Growth inhibition of human DU145 cells assessed as cell growth at 10^-5 M incubated for 48 hrs by sulforhodamine B assay relative to control; details: DU-145, 48 h, read-out: Activity
MCF7 = experiment: Growth inhibition of human MCF7 cells at 10^-5 M incubated for 48 hrs by sulforhodamine B assay relative to control; details: MCF7, 48 h, read-out: GI
Hs-578T = experiment: Growth inhibition of human Hs578T cells assessed as cell growth at 10^-5 M incubated for 48 hrs by sulforhodamine B assay relative to control; details: read-out: Activity
BT-549 = experiment: Growth inhibition of human BT549 cells assessed as cell growth at 10^-5 M incubated for 48 hrs by sulforhodamine B assay relative to control; details: BT-549, 48 h, read-out: Activity
T47D = experiment: Growth inhibition of human T47D cells at 10^-5 M incubated for 48 hrs by sulforhodamine B assay relative to control; details: read-out: GI
MDA-MB-468 = experiment: Growth inhibition of human MDA-MB-468 cells at 10^-5 M incubated for 48 hrs by sulforhodamine B assay relative to control; details: MDA-MB-468, 48 h, read-out: GI

| Compound | growth at 10 µM (CCRF-CEM) [%] | growth at 10 µM (K562) [%] | growth at 10 µM (MOLT-4) [%] | growth at 10 µM (RPMI-8226) [%] | growth at 10 µM (SR) [%] | growth at 10 µM (NCI-H23) [%] | growth at 10 µM (NCI-H322M) [%] | growth at 10 µM (NCI-H460) [%] | growth at 10 µM (NCI-H522) [%] | growth at 10 µM (HCT-15) [%] | growth at 10 µM (KM12) [%] | growth at 10 µM (SW-620) [%] | growth at 10 µM (SF-268) [%] | growth at 10 µM (SF-295) [%] | growth at 10 µM (SF-539) [%] | growth at 10 µM (SNB-75) [%] | growth at 10 µM (LOX IMVI) [%] | growth at 10 µM (MDA-MB-435) [%] | growth at 10 µM (SK-MEL-5) [%] | growth at 10 µM (UACC-257) [%] | also measured |
| --- | --- | --- | --- | --- | --- | --- | --- | --- | --- | --- | --- | --- | --- | --- | --- | --- | --- | --- | --- | --- | --- |
| O=C1NC(=O)C(=Cc2cccn2CCCCCn2c3ccccc3c(=O)c3ccccc32)C(=O)N1 | 100 | 89.1 | 93.3 | 92 | 86.8 | 96.3 | 98.3 | 108 | 90.5 | 92.8 | 103 | 105 | 102 | 99.4 | 102 | 101 | 95.3 | 97.7 | 98.7 | 104 | growth at 10 µM (IGROV-1): 99.4%; growth at 10 µM (OVCAR-3): 105%; growth at 10 µM (OVCAR-4): 99.8%; growth at 10 µM (OVCAR-8): 102%; growth at 10 µM (ACHN): 105%; growth at 10 µM (SN12C): 106%; growth at 10 µM (UO-31): 79.4%; growth at 10 µM (DU-145): 113%; inhibition of growth at 10 µM (MCF7): 15%; growth at 10 µM (Hs-578T): 106%; growth at 10 µM (BT-549): 104%; inhibition of growth at 10 µM (T47D): 13%; inhibition of growth at 10 µM (MDA-MB-468): 0% |
| O=C1Nc2ccccc2/C1=C/c1cccn1CCCCn1c2ccccc2c(=O)c2ccccc21 | 52.8 | 59.5 | 47.7 | 33.5 | 80.1 | 77.4 | 101 | 93.7 | 68.4 | 31.7 | 13 | 98.8 | 83.1 | 101 | 93 | 78 | 82.5 | 92.7 | 38.6 | 105 | growth at 10 µM (IGROV-1): 77.3%; growth at 10 µM (OVCAR-3): 86.7%; growth at 10 µM (OVCAR-4): 65.8%; growth at 10 µM (OVCAR-8): 58.8%; growth at 10 µM (ACHN): 76.3%; growth at 10 µM (SN12C): 97.9%; growth at 10 µM (UO-31): 49.6%; growth at 10 µM (DU-145): 94.2%; inhibition of growth at 10 µM (MCF7): 96%; growth at 10 µM (Hs-578T): 86.3%; growth at 10 µM (BT-549): 74.5%; inhibition of growth at 10 µM (T47D): 95%; inhibition of growth at 10 µM (MDA-MB-468): 49% |
| O=C1NC(=O)C(=Cc2cccn2CCCCCCn2c3ccccc3c(=O)c3ccccc32)C(=O)N1 | 93.8 | 74.7 | 79.6 | 73.9 | 72.2 | 84.2 | 94.1 | 101 | 92.7 | 90.3 | 97.1 | 96.9 | 97 | 97.6 | 107 | 107 | 89.7 | 102 | 85.7 | 103 | growth at 10 µM (IGROV-1): 91.5%; growth at 10 µM (OVCAR-3): 103%; growth at 10 µM (OVCAR-4): 95.4%; growth at 10 µM (OVCAR-8): 93%; growth at 10 µM (ACHN): 103%; growth at 10 µM (SN12C): 100%; growth at 10 µM (UO-31): 70.3%; growth at 10 µM (DU-145): 103%; inhibition of growth at 10 µM (MCF7): 24%; growth at 10 µM (Hs-578T): 106%; growth at 10 µM (BT-549): 93.9%; inhibition of growth at 10 µM (T47D): 25%; inhibition of growth at 10 µM (MDA-MB-468): 5% |
| O=C1Nc2ccccc2/C1=C/c1cccn1CCCCCCn1c2ccccc2c(=O)c2ccccc21 | 49.8 | 66.6 | 50.9 | 25.3 | 80.8 | 73.6 | 97.9 | 90.7 | 66 | 23 | 12.8 | 102 | 87 | 97.2 | 100 | 92.3 | 91.2 | 96.7 | 34.7 | 110 | growth at 10 µM (IGROV-1): 88%; growth at 10 µM (OVCAR-3): 64.9%; growth at 10 µM (OVCAR-4): 53.8%; growth at 10 µM (OVCAR-8): 47.5%; growth at 10 µM (ACHN): 89.7%; growth at 10 µM (SN12C): 93.6%; growth at 10 µM (UO-31): 56.2%; growth at 10 µM (DU-145): 94%; inhibition of growth at 10 µM (MCF7): 99%; growth at 10 µM (Hs-578T): 96.3%; growth at 10 µM (BT-549): 63.5%; inhibition of growth at 10 µM (T47D): 100%; inhibition of growth at 10 µM (MDA-MB-468): 92% |
| O=C1/C(=C\c2cccn2CCCCn2c3ccccc3c(=O)c3ccccc32)c2ccccc2N1c1c(Cl)cccc1Cl | 103 | 91.5 | 93.8 | 97.4 | 87.7 | 101 | 103 | 104 | 90 | 83.5 | 90.8 | 105 | 94 | 98.8 | 98.9 | 91.9 | 98.1 | 103 | 98.7 | 101 | growth at 10 µM (IGROV-1): 110%; growth at 10 µM (OVCAR-3): 118%; growth at 10 µM (OVCAR-4): 78.3%; growth at 10 µM (OVCAR-8): 98.3%; growth at 10 µM (ACHN): 99.5%; growth at 10 µM (SN12C): 101%; growth at 10 µM (UO-31): 80.8%; growth at 10 µM (DU-145): 111%; inhibition of growth at 10 µM (MCF7): 68%; growth at 10 µM (Hs-578T): 103%; growth at 10 µM (BT-549): 105%; inhibition of growth at 10 µM (T47D): 33%; inhibition of growth at 10 µM (MDA-MB-468): 28% |
